Reference: US20220370493A1, “METHODS AND COMPOSITIONS FOR GENERATING NITRIC OXIDE AND USES THEREOF” (THIRTY HOLDINGS LIMITED, priority 2019, published 2022)

Columns and labels:
[1] = test system: Vero E6 cells
[2] = test system: SARS-CoV-2 clinical isolate; assay: SARS-CoV-2 virus yield reduction assay in Vero E6 cells; assay type: cell-based
Procedure: SARS-CoV-2 clinical isolate.
At time 0 hr, Vero E6 cells were infected with virus in presence of the formulation or controls and incubated for 1 hour. After this incubation period the inoculum was removed and the cells were washed. Fresh formulation or controls were then added to the washed cells. At 24 hours post infection, Vero E6 cell supernatants were harvested and titrated, and the virus titration was incubated for 6 days prior to readout to determine any virus yield reduction. Separate tests were performed at four MOIs including 3.0 and 0.3, although only those two MOIs were titrated. The readout was by crystal violet (cell monolayer) staining, followed by CPE scoring.

For `O=C(O)CC(O)(CC(=O)O)C(=O)O` [citric acid pH 5.8, citric acid], which “cytotoxicity on the LDH assay” value [1] is on record?
Its value is “low cytotoxicity”.

And the “in vitro antiviral action against SARS-CoV-2” value ([2]; FIGS. 33 and 34, MOI 3.0 and 0.3)?
Its value is “high in vitro antiviral action”.

`CCN(CC)CCCC(C)Nc1ccnc2cc(Cl)ccc12` (stereo not shown) [chloroquine, Chloroquine phosphate] was tested. Which SARS-CoV-2 titre ([2]; FIG. 33, Run 1, MOI 3.0, 24 hours) did it give?
Its SARS-CoV-2 titre is “limit of detection”.

What about the SARS-CoV-2 titre ([2]; FIG. 34, Run 2, MOI 3.0 and MOI 0.3, 48 hours) of the same compound?
The SARS-CoV-2 titre was “limit of detection”.
